Where “and” joins values, the source holds several entries; their conditions need not be identical. Equal entries are not always repeated.
Columns and labels:
[1] = system: pStat5, Hes1, p-Erk, p-p38, p-S6, p-Akt in Lmo2^Tg DN3a cells; assay: Growth factor-mediated signalling effectors in co-cultured Lmo2^Tg DN3a cells (flow cytometry); type: cell-based, mouse
Description: (§1) Phosphoflow analysis was performed as previously described. Briefly, 2 × 10^6 cells stained for surface markers were subsequently resuspended into PBS 1× + 4% v/v paraformaldehyde and incubated for 10 min at 4 °C for fixation. Fixed cells were washed twice using PBS 1×, then resuspended in pre-chilled at −20 °C Perm Buffer III (BD Pharmingen) and incubated 30 min at 4 °C for permeabilization. Cells were washed twice using PBS 1× and incubated overnight at 4 °C in PBS 1× + 2% v/v fetal calf serum (FCS) with Cell Signalling purified antibodies (Genesearch Pty Ltd, Arundel QLD, Australia) against pSTAT5 (Tyr694; #9359), phospho-p38 MAPK (Thr180/Tyr182; #4511), phospho-p44/42 (Erk1/2; #9102), phospho-S6 (Ser235/236; #4856) and phospho-Akt (Ser473; #9271) or isotype control. For intracellular HES1 detection, cells stained for surface markers were subsequently fixed and permeabilized using the BD Cytofix/Cytoperm^TM Kit and incubated overnight at 4 °C in PBS 1× + 2% v/v FCS with a purified antibody against HES1 (D6PU; #11988, Cell Signalling) or isotype control. After staining with primary antibodies for phosphoflow or intracellular detection, cells were incubated in permeabilization buffer with donkey Alexa Fluor 488-conjugated anti-rabbit secondary antibody (A-21206, lot #1910751, Molecular Probes, Invitrogen) or goat Alexa Fluor 546-conjugated anti-rabbit secondary antibody (A-11035, lot #1904467, Molecular Probes, Invitrogen) for 1 h on ice, and washed twice in PBS 1×. Fluorescence-activated cell sorting (FACS) analysis was performed using LSRII and LSR Fortessa cytometers, following the gating strategies described in Supplementary Fig. 11. Cell sorting was performed with a FACSAria or BD Influx.

DN3a thymocytes = assay: Relative viability and LC50 on DN3a thymocytes of WT, Lmo2^Tg, Lmo2^Tg;STAT5-CA^Tg and Lmo2^Tg;N1-ICD^Tg mice, 48 h
Description: Pre-leukemic and leukemic thymocytes were purified by flow cytometry and co-cultured on GFP-positive OP9 and OP9-DL1 stromal cell lines, as described previously. Thymocytes were co-cultured in reconstituted alpha-MEM medium (#12318, Gibco, Grand Island NY, USA) supplemented with 20% FCS (#12318), HEPES 10 mM (#15630-080), sodium pyruvate 1 mM (#11360-070), β-mercaptoethanol 55 μM (#21985-023), Glutamax 2 mM (#15750-060), 1% Penicillin/Streptomycin (#15140-122), 5 ng/mL rmFLT-3 ligand (#250-31 L, Pepro Tech), 5 ng/mL rmIL-7 (#217-17, Pepro Tech) and 25 ng/mL rmSCF (#250-03, Pepro Tech). After 48 h of co-culture, thymocytes were counted and analysed by FACS. […]
viability of wild-type (WT), Lmo2 Tg, Lmo2Tg;STAT5-CA Tg and Lmo2Tg;N1-ICD Tg DN3a thymocytes […]
normalized to cells treated with vehicle (%DMSO). Mean ± SEM of n=4 biological replicates. b, […]
thymocytes from 6-week old wild-type (WT), Lmo2 Tg, Lmo2Tg;STAT5-CATg and Lmo2Tg ;N1-ICD Tg mice. Mean ± SD of n=4 biological replicates are shown. 2-way ANOVA with Tukey’s correction test; […]
(1 picture or pasted object on this page, not shown here)
*P<0.05, *** P<0.001 compared to WT; #P<0.05, ##P<0.01, ###P<0.001 compared to L mo2Tg. c, Levels of pStat5 (left) after stimulation with IL-7 , as well as Hes1 expression (right) after co-culture on OP9- […]
(0.2 µM), Ruxolitinib (0.2 µM) and DAPT (0.1 µM). Unstimulated cells were used as negative controls (dashed line). Student’s t -test, ** P<0.01, *** P<0.001 compared to unstimulated cells. MFI ± SEM, 1-way ANOVA with Tukey’s correction test; **P<0.01, *** P<0.001 compared to vehicle. d, Clonogenic assay of normal murine hematopoietic stem and progenitor cells (HSPCs) cultured in the presence […]
± SD, Student’s t -test ( n=4) **P<0.01 compared to vehicle. e, Relative viability of wild-type (WT), […]
2 (0.2 µM), Ruxolitinib (0.2 µM) and DAPT (0.1 µM) for 48 hours. Viability was normalized to cells treated with vehicle (%DMSO, which was reported as 100). Mean ± SEM, 2-way ANOVA with Tukey’s correction test, **P<0.01, *** P<0.001 compared to vehicle.

[2] = system: Hes1 in leukemic DN3a cells from primary Lmo2^Tg T-ALL; assay: Notch1 (DL1)-induced Hes1 in leukemic DN3a cells from primary Lmo2^Tg T-ALL; type: cell-based, mouse
Description: as §1
For in vitro NOTCH1 signalling activation assays, cells were seeded on OP9 and OP9-DL1 stromal cell lines as described in the co-culture assays section and incubated overnight with either Dynole 34-2 or Ruxolitinib or DAPT resuspended in DMSO. Harvested cells were washed twice using cold PBS 1× and incubated with 25 ng/mL Rat IgG (Sigma-Aldrich Pty Ltd, Castle Hill NSW, Australia) with a PE-conjugated antibody for detection of NOTCH1 for 1 h on ice, as described in the FACS analysis section. PE-conjugated isotype was used as negative control. Cells were washed twice, fixed and analysed for intracellular HES1 detection by flow cytometry as described in the FACS analysis section. The analysis was performed in triplicate and the MFI observed in thymocytes co-cultured on OP9 cells was reported as 100%.

[3] = Lmo2^Tg DN3a cells co-cultured on OP9-DL1 with cytokines, individual animals
[4] = leukemic DN3a cells of TALL249, Notch1 (DL1) stimulation
[5] = leukemic DN3a cells of TALL257, Notch1 (DL1) stimulation
[6] = leukemic DN3a cells of TALL273, Notch1 (DL1) stimulation
[7] = leukemic DN3a cells of TALL582, Notch1 (DL1) stimulation
[8] = leukemic DN3a cells of TALL588, Notch1 (DL1) stimulation
[9] = leukemic DN3a cells of TALL742, Notch1 (DL1) stimulation

## CCCCCCCCNC(=O)C(C#N)=Cc1cn(CCCN(C)C)c2ccccc12 [Dynole 34-2, 2-Cyano-N-octyl-3-(1-(3-dimethylaminopropyl)-1H-indol-3-yl)-acrylamide]
[1]; [3]
  Hes1 (MFI): 5911 MFI and 6176 MFI and 5994 MFI and 6141 MFI
  p-Akt (MFI): 1455 MFI and 2044 MFI and 1472 MFI and 1916 MFI
  p-Erk (MFI): 2822 MFI and 3661 MFI and 3448 MFI and 2830 MFI
  p-S6 (MFI): 4904 MFI and 4987 MFI and 5062 MFI and 5235 MFI
  p-p38 (MFI): 4351 MFI and 3539 MFI and 4397 MFI and 3757 MFI
  pStat5 (MFI): 2745 MFI and 2767 MFI and 2938 MFI and 3210 MFI
[1]; Supplementary Figure 2c, unstimulated and vehicle controls in the same table
  Hes1 (MFI): 1218 MFI and 1199 MFI and 1165 MFI
DN3a thymocytes; LC50 comparison, 48 h
  relative resistance conferred by mutations downstream of DDE (STAT5-CA^Tg, N1-ICD^Tg) vs Lmo2^Tg DN3a: 3.4 fold
DN3a thymocytes; Lmo2Tg DN3a thymocytes, dose 0.04 mM (so in the source)
  Relative % viable cells: 53.38% and 35.26% and 57.31% and 29.03%
DN3a thymocytes; Lmo2Tg DN3a thymocytes, dose 25 mM (so in the source)
  Relative % viable cells: 0%
DN3a thymocytes; Lmo2Tg;Notch1Tg DN3a thymocytes, dose 1 mM (so in the source)
  Relative % viable cells: 27.05% and 30.53% and 26.36%
DN3a thymocytes; Lmo2Tg;STAT5-CATg DN3a thymocytes, dose 0.04 mM (so in the source)
  Relative % viable cells: 60% and 110.87% and 62.94% and 65.19%
DN3a thymocytes; Lmo2Tg;STAT5-CATg DN3a thymocytes, dose 0.2 mM (so in the source)
  Relative % viable cells: 40.03% and 50.05% and 55.36%
DN3a thymocytes; Lmo2Tg;STAT5-CATg DN3a thymocytes, dose 25 mM (so in the source)
  Relative % viable cells: 0% and 5.23% and 8.65%
DN3a thymocytes; Mus musculus, Thymocyte, read-out: Relative % viable cells, Lmo2Tg;STAT5-CATg DN3a thymocytes, dose 0.2 mM (so in the source)
  viability at 200 µM: 37.5%
DN3a thymocytes; WT DN3a thymocytes, dose 0.04 mM (so in the source)
  Relative % viable cells: 81.18% and 50% and 68.95% and 71.06% and 67.17%
DN3a thymocytes; WT DN3a thymocytes, dose 5 mM (so in the source)
  Relative % viable cells: 5.59% and 1.77% and 8.44% and 6.33% and 6.38%
DN3a thymocytes; WT DN3a thymocytes, dose 25 mM (so in the source)
  Relative % viable cells: 0% and 8.83%
DN3a thymocytes; WT vs Lmo2^Tg DN3a, result in words
  sensitivity of wild-type (WT) DN3a thymocytes relative to pre-LSCs: fivefold less sensitive
[2]; [4]
  Hes1 (MFI): 7095 MFI
  Hes1, FOLD over unstimulated: 0.94 fold
[2]; [5]
  Hes1 (MFI): 5988 MFI
  Hes1, FOLD over unstimulated: 1.05 fold
[2]; [6]
  Hes1 (MFI): 7679 MFI
  Hes1, FOLD over unstimulated: 0.92 fold
[2]; [7]
  Hes1 (MFI): 5082 MFI
  Hes1, FOLD over unstimulated: 0.94 fold
[2]; [8]
  Hes1 (MFI): 7974 MFI
  Hes1, FOLD over unstimulated: 1.46 fold
[2]; [9]
  Hes1 (MFI): 7594 MFI
  Hes1, FOLD over unstimulated: 0.96 fold
